Laboratory results reported in patent publication US6410508B1 (priority 1998, dated 2002).

Tests used:
[1] = test system: SaOS2 cells; experiment: Collagen type I mRNA expression by northern blot in SaOS2 cells; type: cell-based, human
Method: After 24 hourg, total RNA was extracted and probed with a collagen type I specific probe. The autoradiographs were then scanned and the densitometry quantified on a Sun Sparc station using Bioimage software. (n=4, *=p<0.001). […] The densitometry of four different experiments was summed and is expressed as a bar graph; *=p<0.001 vs control, as a function of time, in FIG. 2A.
After 24 hours, total RNA was extracted from cells using Trizol. RNA (20 μg) was electrophoresed on a 1.2% agarose-formaldehyde gel and transferred to a nylon filter. The blots were hybridized overnight at 65° C. with a ^32P-labeled probe (10^6 cpm/ml), labeled by the random-priming method and washed at a maximum stringency. Blots were exposed to Kodak XAR 5 film and analyzed by densitometry, quantified on a Sun Sparc station using Bioimage software. (n=4, *=p<0.001). The collagen densitometry was normalized to GAPDH, a housekeeping gene, found not to change in response to GIP.
Total RNA was extracted from cells using Trizol (Gaithersburg, Md.). RNA was stored at −70° C. until use. RNA (20 μg) was electrophoresed on a 1.2% agarose-formaldehyde gel and transferred to a nylon filter. The blots were hybridized overnight at 65° C. with a ^32P-labeled probe (10^6 cpm/ml), labeled by the random-priming method and washed at maximum stringency. Hybridization was carried out in a solution of 7% SDS, 1% BSA, 1 mM EDTA, 250 mM Na2HPO4. The hybridized filters were washed with four 5 min washes of 2×SSC, 0.1% SDS at room temperature and twice in 0.1×SSC, 0.1% SDS for 30 min at 65° C. The blots were then exposed to Kodak XAR 5 film. The probes used were GAPDH (ATCC clone 57090), collagen 1 (i.m.a.g.e. clone# 308919) and a human GIPR fragment derived by PCR corresponding to transmembrane domains 2 to 7.

[2] = test system: SaOS2 cells; experiment: Cellular cAMP content by radioimmunoassay in SaOS2 cells; type: cell-based, human; settings: GIP 1 μM
Method: (§1) Peak increases in intracellular calcium from four different experiments were calculated. Data is expressed as mean±SEM; *=p<0.001; **=p<0.001. […] Cellular cAMP was measured with a commercially available radioimmunoassay (Biomedical Technologies, Stoughton, Mass.). Data is expressed as mean+SEM; **=p<0.001.
cAMP measurements were done as described by Isales, et al., Endocrinology 129:489-95 (1991). Briefly, SaOS2 cells were grown to confluence in 60 mm^2 dishes and placed in KRB for 24 hours before use. In order to facilitate the measurement of cAMP production, 1 mM isomethylbutylxanthine (IBMX) was added prior to agonist addition for 10 minutes, followed by incubation with agonist for 10 minutes. Incubations were stopped by addition of 5% TCA, left on ice for 15 minutes and the cell extract collected. The extracts were neutralized by addition of a 1:1 solution ice cold Freon/Tri-N-octylamine (4:1,v/v). Each sample was vortexed for at least 30 sec to ensure adequate mixing. The mixture was then centrifaged at 2,500 rpm for 20 minutes ([…]). The top aqueous phase containing the cAMP was collected. The pH of the upper phase was checked to ensure adequate neutralization. The samples were stored at −70° C. until analysis. cAMP was measured using a commercially available radioimmunoassay (Biomedical Technologies, Stoughton, Mass.). […]

[3] = test system: fetal radius and ulna bone explants; experiment: Fetal long bone resorption assay (45Ca release); type: cell-based, rat; settings: 10 nM PTH, GIP 10 nM
Method: Pregnant Sprague-Dawley rats (Charles River Laboratories, Kingston, N.Y.) were injected with 200 μCi^45Ca on day 18 of gestation and killed one day later to remove the labeled fetal radius and ulna. […] Medium was changed every 3 days and ^45Ca was measured after every culture period. Resorption is expressed as the ratio of ^45Ca released from treated versus control bones.

[4] = test system: SaOS2 cells; experiment: Intracellular calcium measurement with fura-2 in SaOS2 cells; type: cell-based, human; settings: fura-2, dose-dependent response
Method: as §1
Intracellular calcium measurements were made as described by Gasalla-Herraiz, et al., Biochem Biophys Res Commun 214:373-88 (1995). Briefly, SaOS2 cells were grown in 75 cm^2 flasks and removed by incubating in PBS/EGTA. Cells were loaded with the calcium sensitive dye fara-2AM in KRB, for 45 min at room temperature. The cells were then centrifuged and resuspended in KRB. After approximately 30 minutes at room temperature, to allow esterase cleavage of fura-2AM to fura-2, the cells were again centrifuged and placed in a cuvette in a dual-wavelength spectrophotometer (Photon Technologies International, South Brunswick, N.J.). Fluorescence was then measured using excitation wavelengths of 340 and 380 nm and an emission wavelength of 510 nm. Autoflourescence was measured in unloaded cells and this value subtracted from all the measurements.

[5] = test system: ovariectomized (OVX) rat; experiment: Bone mineral density by DXA in ovariectomized and non-OVX rats; type: in vivo, Sprague-Dawley rats; settings: six weeks
Description: 1. Control. Five non-OVX rats received daily injections at the same time everyday (09:00) of saline vehicle for six weeks into the tail vein.
3. OVX. Six OVX rats received saline vehicle injected daily for six weeks.

[6] = test system: MG63 cells; experiment: Alkaline phosphatase activity in MG63 cells; type: cell-based, human
Method: Shown are the Means±SEM of triplicates of four different experiments. *=p<0.05; +=p<0.001.
Alkaline phosphatase (ALP) activity was measured using a commercially available assay kit (ALP […] Colorimetric test; Sigma Diagnostic, St. Louis, Mo.). This kit measures the conversion of p-nitrophenyl phosphate top-nitrophenol and inorganic phosphate. The change in absorbance at 405 nm is directly proportional to ALP activity. MG 63 cells were grown in 6 well plates incubated with the indicated agonist for the indicated times (medium was changed daily with readdition of fresh agonist) and samples collected. The kit reagents were added to the sample cuvette in the spectrophotometer at 30° C. and absorbances at 405 nm obtained at 1, 2 and 3 minutes. ALP activity (U/L) was determined using the change in absorbance with time and a millimolar absorptivity of p-nitrophenol at 405 nm of 18.45.

[7] = molecular target: receptors for GIP; settings: pancreatic β cells; depending on the cell system and the source of GIP (human versus porcine); read-out: binding affinity; cited from earlier work

## CC[C@H](C)[C@H](NC(=O)[C@H](CO)NC(=O)[C@H](Cc1ccc(O)cc1)NC(=O)[C@H](CC(=O)O)NC(=O)[C@H](CO)NC(=O)[C@@H](NC(=O)[C@H](Cc1ccccc1)NC(=O)[C@@H](NC(=O)CNC(=O)[C@H](CCC(=O)O)NC(=O)[C@H](C)NC(=O)[C@@H](N)Cc1ccc(O)cc1)[C@@H](C)O)[C@@H](C)CC)C(=O)N[C@@H](C)C(=O)N[C@@H](CCSC)C(=O)N[C@@H](CC(=O)O)C(=O)N[C@@H](CCCCN)C(=O)N[C@H](C(=O)N[C@@H](Cc1c[nH]cn1)C(=O)N[C@@H](CCC(N)=O)C(=O)N[C@@H](CCC(N)=O)C(=O)N[C@@H](CC(=O)O)C(=O)N[C@@H](Cc1ccccc1)C(=O)N[C@H](C(=O)N[C@@H](CC(N)=O)C(=O)N[C@@H](Cc1c[nH]c2ccccc12)C(=O)N[C@@H](CC(C)C)C(=O)N[C@@H](CC(C)C)C(=O)N[C@@H](C)C(=O)N[C@@H](CCC(N)=O)C(=O)N[C@@H](CCCCN)C(=O)NCC(=O)N[C@@H](CCCCN)C(=O)N[C@@H](CCCCN)C(=O)N[C@@H](CC(N)=O)C(=O)N[C@@H](CC(=O)O)C(=O)N[C@@H](Cc1c[nH]c2ccccc12)C(=O)N[C@@H](CCCCN)C(=O)N[C@@H](Cc1c[nH]cn1)C(=O)N[C@@H](CC(N)=O)C(=O)N[C@H](C(=O)N[C@H](C(=O)N[C@@H](CCC(N)=O)C(=O)O)[C@@H](C)O)[C@@H](C)CC)C(C)C)[C@@H](C)CC [GIP, Glucose-dependent Insulinotropic Peptide]
[1]; 1 nM GIP, 0-12 hours
  time course of GIP effect on collagen mRNA: after six hours of stimulation
[1]; higher doses (0.10, and 100 nM)
  effect on collagen synthesis: maximal effect
[1]; lower GIP dose 0.1 nM
  effect on collagen synthesis: no effect
[2]
  elevation in cellular cAMP content: 710 % above control
[3]
  PTH-induced bone resorption: inhibits PTH-induced bone resorption
[4]
  GIP concentration at which a significant increase in [Ca2+]i occurs: 0.1 nM
[5]; OVX rats treated with GIP
  bone density versus controls: not statistically different from controls
[5]; all experimental groups
  densitometry of the whole extremity: no different among the various experimental groups
[5]; non-OVX control rats, GIP 0.05 mg/kg daily
  bone density versus untreated animals: lower bone density than the untreated animals, this difference was not statistically significant
[6]
  GIP concentration significantly increasing ALP activity: 0.1 nM
[6]; 0.1 nM GIP, 1-6 days
  onset of ALP activity increase: as early as two days after stimulation
[6]; 0.1 nM GIP, control 1,25 vitamin D (10 ng/ml)+TGF-β (10 ng/ml)
  GIP effect on ALP versus positive control: larger than that observed with 1,25 vitamin D
[6]; GIP 1-10 nM
  ALP activity at higher doses versus 0.1 nM: did not increase ALP activity any further
[7]
  Kd: 0.3 to 30 nM
